ChEMBL document CHEMBL4673244 (J Med Chem, 2020)
One block for each compound: values may come before it.

Tests used:
physchem = conditions: buffer, pH 7.4
in vitro [1] = conditions: dog, MDCK
in vitro [2] = conditions: human, liver microsomes
in vitro [3] = conditions: human, hepatocytes

SMILES: C[C@]1(O)CCN(c2nc(N3C[C@H](O)[C@@H](O)C3)cc(C(F)(F)F)c2C#N)C1
logD (physchem): 2.2
Papp (in vitro [1]): 3.5 ×10⁻⁶ cm/s
microsomal CLint (in vitro [2]): < 13 µL/min/mg

SMILES: C[C@H]1[C@H](O)CN1c1nc(N2C[C@@H]3[C@@H](CC(=O)O)[C@@H]3C2)cc(C(F)(F)F)c1C#N
hepatocyte CLint (in vitro [3]): 26 µL/min/1e6 cells
logD (physchem): 1
Papp (in vitro [1]): 5.6 ×10⁻⁶ cm/s
microsomal CLint (in vitro [2]): < 11 µL/min/mg

SMILES: C[C@H]1[C@H](O)CN1c1nc(N2C[C@@H]3[C@@H](CC(=O)O)[C@@H]3C2)cc(C(F)(F)F)n1
hepatocyte CLint (in vitro [3]): < 2 µL/min/1e6 cells
logD (physchem): 0.1
Papp (in vitro [1]): 1.4 ×10⁻⁶ cm/s

More lines, now with the values ahead:

logD (physchem): 3.3
SMILES: C[C@H]1[C@H](O)CN1c1nc(N2C[C@@H]3[C@@H](CO)[C@@H]3C2)cc(C(F)(F)F)c1C#N

logD (physchem): 0.6
SMILES: C[C@H]1[C@H](O)CN1c1nc(N2C[C@@H]3[C@H](C2)[C@H]3C(=O)O)cc(C(F)(F)F)c1C#N
